# Laboratory results: patent publication US10420341B2, “Herbicidal phenylpyrimidines” (BASF SE, priority 2015, dated 2019)
# Key:
# APESV [1] = test: greenhouse pre-emergence herbicidal test; type: in vivo, Apera spica-venti; conditions: pre-emergence method, scale from 0 to 100
# Outline: (§1)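 Compounds suspended or emulsified in water, sprayed pre-emergence directly after sowing; containers covered until rooting, kept at 10-25 °C or 20-35 °C by species. Damage scored 0-100 (100 = no emergence or complete destruction of aerial parts) after 2 to 4 weeks.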
# ECHCG [2] = test: greenhouse post-emergence herbicidal test; type: in vivo, Echinocloa crus-galli; conditions: post-emergence method, application rate 500 g/ha, scale from 0 to 100
# Outline: (§2)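 Scoring 0 (no damage) to 100 (no emergence or total destruction of aerial parts), taken over a 2 to 4 week period after post-emergence treatment at 3 to 15 cm plant height. Compounds applied as aqueous suspension or emulsion; greenhouse temperature 10-25° C. or 20-35° C. depending on species.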
# LOLMU = test: greenhouse post-emergence herbicidal test; type: in vivo, Lolium multiflorum; conditions: post-emergence method, scale from 0 to 100
# Source text: (§3) The seeds of the test plants were sown separately for each species. For the post-emergence treatment, the test plants were first grown to a height of 3 to 15 cm, depending on the plant habit, and only then treated with the active ingredients which had been suspended or emulsified in water. For this purpose, the test plants were either sown directly and grown in the same containers, or they were first grown separately as seedlings and transplanted into the test containers a few days prior to treatment. Depending on the species, the plants were kept at 10-25° C. or 20-35° C., respectively. The test period extended over 2 to 4 weeks. During this time, the plants were tended, and their response to the individual treatments was evaluated. Evaluation was carried out using a scale from 0 to 100. 100 means no emergence of the plants, or complete destruction of at least the aerial moieties, and 0 means no damage, or normal course of growth. […] The plants used in the greenhouse experiments were of the following species: [table]
# POLCO = test: greenhouse post-emergence herbicidal test; type: in vivo, Polygonum convolvulus; conditions: post-emergence method, scale from 0 to 100
# Outline: as §2
# ECHCG [3] = test: greenhouse pre-emergence herbicidal test; type: in vivo, Echinocloa crus-galli; conditions: pre-emergence method, application rate 500 g/ha, scale from 0 to 100
# Outline: as §1
# SETVI = test: greenhouse pre-emergence herbicidal test; type: in vivo, Setaria viridis; conditions: pre-emergence method, application rate 1000 g/ha, scale from 0 to 100
# Source text: (§4) The seeds of the test plants were sown separately for each species. For the pre-emergence treatment, the active ingredients, which had been suspended or emulsified in water, were applied directly after sowing by means of finely distributing nozzles. The containers were irrigated gently to promote germination and growth and subsequently covered with transparent plastic hoods until the plants had rooted. This cover caused uniform germination of the test plants, unless this had been impaired by the active ingredients. Depending on the species, the plants were kept at 10-25° C. or 20-35° C., respectively. The test period extended over 2 to 4 weeks. During this time, the plants were tended, and their response to the individual treatments was evaluated. Evaluation was carried out using a scale from 0 to 100. 100 means no emergence of the plants, or complete destruction of at least the aerial moieties, and 0 means no damage, or normal course of growth. […] The plants used in the greenhouse experiments were of the following species: [table]
# AMARE [4] = test: greenhouse pre-emergence herbicidal test; type: in vivo, Amaranthus retroflexus; conditions: pre-emergence method, scale from 0 to 100
# Source text: as §4
# ALOMY = test: greenhouse post-emergence herbicidal test; type: in vivo, Alopercurus myosuroides; conditions: post-emergence method, application rate 1000 g/ha, scale from 0 to 100
# Outline: as §2
# AMARE [5] = test: greenhouse post-emergence herbicidal test; type: in vivo, Amaranthus retroflexus; conditions: post-emergence method, application rate 1000 g/ha, scale from 0 to 100
# Outline: as §2
# AVEFA [6] = test: greenhouse post-emergence herbicidal test; type: in vivo, Avena fatua; conditions: post-emergence method, scale from 0 to 100
# Outline: as §2
# AVEFA [7] = test: greenhouse pre-emergence herbicidal test; type: in vivo, Avena fatua; conditions: pre-emergence method, application rate 500 g/ha, scale from 0 to 100
# Source text: as §4
# APESV [8] = test: greenhouse post-emergence herbicidal test; type: in vivo, Apera spica-venti; conditions: post-emergence method, application rate 500 g/ha, scale from 0 to 100
# Source text: as §3
smiles,measurement,setting,value
CCc1ncc(-c2ccccc2Cl)c(C(=O)O)n1 [example 6],herbicidal activity against APESV,APESV [1]; application rate 500 g/ha,very good (a very good herbicidal activity is given at values of at least 85)
same,herbicidal activity against ECHCG,ECHCG [2],very good (a very good herbicidal activity is given at values of at least 85)
same,herbicidal activity against LOLMU,LOLMU; application rate 500 g/ha,good (A good herbicidal activity is given at values of at least 70)
same,herbicidal activity against POLCO,POLCO; application rate 500 g/ha,very good (a very good herbicidal activity is given at values of at least 85)
Cc1ccc(C)c(-c2cnc(C(C)C)nc2C(=O)O)c1 [example 34],herbicidal activity against APESV,APESV [1]; application rate 500 g/ha,very good (a very good herbicidal activity is given at values of at least 85)
same,herbicidal activity against ECHCG,ECHCG [3],very good (a very good herbicidal activity is given at values of at least 85)
same,herbicidal activity against ECHCG,ECHCG [2],very good (a very good herbicidal activity is given at values of at least 85)
same,herbicidal activity against LOLMU,LOLMU; application rate 500 g/ha,good (A good herbicidal activity is given at values of at least 70)
COc1ccccc1-c1cnc(OC(C)C)nc1C(=O)O [example 74],herbicidal activity against SETVI,SETVI,good (A good herbicidal activity is given at values of at least 70)
COC(=O)c1nc(SC)ncc1-c1cc(C)ccc1Cl [example 117],herbicidal activity against AMARE,AMARE [4]; application rate 500 g/ha,good (A good herbicidal activity is given at values of at least 70)
same,herbicidal activity against ECHCG,ECHCG [3],good (A good herbicidal activity is given at values of at least 70)
Cc1ccccc1-c1cnc(C2CC2)nc1C(=O)O [example 161],herbicidal activity against APESV,APESV [1]; application rate 1000 g/ha,very good (a very good herbicidal activity is given at values of at least 85)
same,herbicidal activity against ALOMY,ALOMY,good (A good herbicidal activity is given at values of at least 70)
same,herbicidal activity against AMARE,AMARE [5],good (A good herbicidal activity is given at values of at least 70)
same,herbicidal activity against LOLMU,LOLMU; application rate 1000 g/ha,good (A good herbicidal activity is given at values of at least 70)
same,herbicidal activity against POLCO,POLCO; application rate 1000 g/ha,good (A good herbicidal activity is given at values of at least 70)
COC(=O)c1nc(C2CC2)ncc1-c1c(Cl)cc(F)cc1Cl [example 208],herbicidal activity against AMARE,AMARE [4]; application rate 1000 g/ha,good (A good herbicidal activity is given at values of at least 70)
same,herbicidal activity against APESV,APESV [1]; application rate 1000 g/ha,very good (a very good herbicidal activity is given at values of at least 85)
same,herbicidal activity against ALOMY,ALOMY,very good (a very good herbicidal activity is given at values of at least 85)
same,herbicidal activity against AVEFA,AVEFA [6]; application rate 1000 g/ha,very good (a very good herbicidal activity is given at values of at least 85)
C#CCOC(=O)c1nc(C2CC2)ncc1-c1ccccc1Cl [example 256],herbicidal activity against APESV,APESV [1]; application rate 500 g/ha,very good (a very good herbicidal activity is given at values of at least 85)
same,herbicidal activity against AVEFA,AVEFA [7],very good (a very good herbicidal activity is given at values of at least 85)
same,herbicidal activity against ECHCG,ECHCG [3],very good (a very good herbicidal activity is given at values of at least 85)
same,herbicidal activity against APESV,APESV [8],very good (a very good herbicidal activity is given at values of at least 85)
same,herbicidal activity against AVEFA,AVEFA [6]; application rate 500 g/ha,very good (a very good herbicidal activity is given at values of at least 85)
same,herbicidal activity against ECHCG,ECHCG [2],very good (a very good herbicidal activity is given at values of at least 85)
